The text below walks through data of patent US20100168008A1, “METHOD OF USE OF EPIREGULIN PROTEIN AND NUCLEIC ACID ENCODING THE SAME IN INFLAMMATORY CONDITIONS” (PIRAMAL LIFE SCIENCES LIMITED., priority 2006, published 2010).

Experiment [1] relates to EREG expression in PBMC. The experiment can be described thus: EREG expression in PBMC by real time polymerase chain reaction (RT-PCR). It counts as cell-based, Human. Particulars: 10 μM drug. The procedure:
Exposure of PBMCs to P979 and Rolipram: Human peripheral blood leukocytes were obtained from normal blood donors by density gradient separation, washed with PBS (phosphate buffered saline), and plated on petri dishes using RPMI medium. […] After 2 hours, cells were harvested and RNA was prepared.
Real Time Polymerase Chain Reaction (RT-PCR): To confirm the data obtained from microarray, we performed RT-PCR using specific primers for epiregulin gene.
EREG expression in PBMCs after exposure to anti-inflammatory agent was confirmed by real time polymerase chain reaction (RT-PCR). Microarray based gene expression profiling studied large-scale gene expression. RT PCR focused on the gene/genes of interest and expression analysis was carried out under similar experimental conditions.
The aliquot of RNA samples as used for microarray study was used for RT-PCR analysis. The experiment was carried out using cMaster™ RTplusPCR System kit from Eppendorf using the protocol as provided in the kit. Briefly, cDNA was synthesized using RNA from various sources as shown in the results and subsequently quantified during amplification step by incorporation of Syber green dye into the amplicons.

Experiment [2] concerns EREG expression in PBMCs. In words: EREG expression in PBMCs after exposure to anti-inflammatory agent, microarray based expression profiling. The class given is cell-based, Human. The protocol: Exposure of PBMCs to P979 and Rolipram: Human peripheral blood leukocytes were obtained from normal blood donors by density gradient separation, washed with PBS (phosphate buffered saline), and plated on petri dishes using RPMI medium. Cells were treated for 30 minutes with test compounds at concentrations 0.3, 1.0 and 3.0 μM and with Rolipram at 300 μM as a control as shown in the results section and subsequently activated with bacterial lipopolysaccharide (LPS). After 2 hours, cells were harvested and RNA was prepared.
Preparation of RNA: RNA was prepared by adding 1 ml of trizol reagent (Sigma) subsequently purified using Qiagen-RNAEasy kit, using the instruction from manufacturer's protocol. Quality and quantity of RNA was measured by spectrometry and gel electrophoresis.
Gene expression profiling by microarray: A total of 10 μg of RNA was used to generate cRNA, which is subsequently labeled with Cy3 or Cy5 fluorescent dyes. Control and test cRNAs labeled with Cy3 and Cy5 respectively were pooled and hybridized to DNA chip. […] Following image analysis, image intensity for each of the 23, 290 spots were measured for test and control slides.
Gene expression was expressed as a ratio of the image intensity between test and control slide for a given gene (Table 3). […]

As to `COc1ccc(C2CNC(=O)C2)cc1OC1CCCC1` (stereo not drawn) [Rolipram], the “Log-fold Change (EREG expression)” value in experiment [1] is listed as 1.2. Further, the “Ratio intensity (EREG expression, test vs control slide)” value in experiment [2] (300 μM drug, 30 minutes, then LPS activation, harvested after 2 hours) came out at 1.03. Further, the “expression of epiregulin gene up-regulated (in words)” value in experiment [2] (microarray) is “not”.
